Values belong to the compound of their own block, whether it stands above or below them.
Legend:
[1] = target: Serine/threonine-protein kinase PLK1 (Homo sapiens, UniProt P53350); assay: Affinity On-target Cellular interaction (ELISA (PLK1 phosphorylation of Ser15-p53 in HeLa cells)) EUB0000698a PLK1; type: cell-based; design: mode of action Inhibitor, recommended concentration 100 nM
[2] = target: T1, Leucine-rich repeat serine/threonine-protein kinase 2 (Homo sapiens, UniProt Q5S007); assay: Affinity On-target Cellular interaction (Cellular assay (LRRK2 phosphorylation)) EUB0000629a LRRK2; design: mode of action Inhibitor, recommended concentration 100 nM
[3] = target: Dual specificity protein kinase CLK2 (Homo sapiens, UniProt P49760); assay: Affinity On-target Cellular interaction (NanoBRET assay (HEK293T cells)) EUB0000705a CLK2
[4] = target: T2, Dual specificity protein kinase CLK4 (Homo sapiens, UniProt Q9HAZ1); assay: Affinity On-target Cellular interaction (NanoBRET assay (HEK293T cells)) EUB0000705a CLK4
[5] = target: T3, Dual specificity protein kinase CLK1 (Homo sapiens, UniProt P49759); assay: Affinity On-target Cellular interaction (NanoBRET assay (HEK293T cells)) EUB0000705a CLK1
[6] = target: Histone-lysine N-methyltransferase SETD7 (Homo sapiens, UniProt Q8WTS6); assay: Affinity On-target Cellular interaction (Immunoblot (increase in nuclear YAP levels by treatment of MEFs (from Setd7+/+ mice) with 10 µM PFI-2)) EUB0000196bCl SETD7; design: mode of action Inhibitor, recommended concentration 1 uM
[7] = target: P2Y purinoceptor 14 (Homo sapiens) (UniProt Q15391); conditions: Affinity On-target Cellular Source Knowledge https://pubs.acs.org/doi/10.1021/jm200400m,https://pubs.acs.org/doi/10.1021/ml300280g, https://www.sgc-ffm.uni-frankfurt.de/#!specificprobeoverview/MSD-M1PAM
[8] = target: Histone acetyltransferase KAT2A (Homo sapiens, UniProt Q92830); assay: Affinity On-target Cellular interaction (Competing pull-down assay (full-length GCN5 from cell lysates using immobilized L-Moses)) EUB0000218c KAT2A; design: mode of action Inhibitor, recommended concentration 1 uM
[9] = target: Histone acetyltransferase KAT2B (Homo sapiens, UniProt Q92831); assay: Affinity On-target Cellular interaction (Competing pull-down assay (full-length PCAF from cell lysates using immobilized L-Moses)) EUB0000218c KAT2B; design: mode of action Inhibitor, recommended concentration 1 uM
[10] = target: Nucleosome-remodeling factor subunit BPTF (Homo sapiens, UniProt Q12830)
[11] = target: RAC-alpha serine/threonine-protein kinase (Homo sapiens, UniProt P31749); assay: Affinity On-target Cellular interaction (NanoBRET assay (HEK293T cells)) EUB0000721a AKT1
[12] = target: RAC-beta serine/threonine-protein kinase (Homo sapiens, UniProt P31751); assay: Affinity On-target Cellular interaction (NanoBRET assay (HEK293T cells)) EUB0000721a AKT2
[13] = target: RAC-gamma serine/threonine-protein kinase (Homo sapiens, UniProt Q9Y243); assay: Affinity On-target Cellular interaction (NanoBRET assay (HEK293T cells)) EUB0000721a AKT3
[14] = target: Lutropin-choriogonadotropic hormone receptor (Homo sapiens, UniProt P22888); assay: Affinity On-target Cellular interaction (Cell-based assay (LH Antagonism)) EUB0000340a LHCGR; design: mode of action Negative control for BAY-899, recommended concentration 1 uM
[15] = target: T1, Leucine-rich repeat serine/threonine-protein kinase 2; assay: Affinity On-target Cellular interaction (NanoBRET assay (HEK293T cells)) EUB0000706a LRRK2
[16] = target: T3, Dual specificity protein kinase CLK1; assay: Affinity On-target Cellular interaction (NanoBRET assay (HEK293T cells)) EUB0000321b CLK1; design: mode of action Inhibitor, recommended concentration 100 nM
[17] = target: T2, Dual specificity protein kinase CLK4; assay: Affinity On-target Cellular interaction (NanoBRET assay (HEK293T cells)) EUB0000321b CLK4; design: mode of action Inhibitor, recommended concentration 100 nM
Activin receptor type-1B = Activin receptor type-1B (Homo sapiens, UniProt P36896); assay: Affinity On-target Cellular interaction (NanoBRET assay (HEK293T cells)) EUB0000710a ACVR1B
TGF-beta receptor type-1 = TGF-beta receptor type-1 (Homo sapiens, UniProt P36897); assay: Affinity On-target Cellular interaction (NanoBRET assay (HEK293T cells)) EUB0000710a TGFBR1
[18] = target: High affinity nerve growth factor receptor (Homo sapiens, UniProt P04629); assay: Affinity On-target Cellular interaction (NanoBRET assay (HEK293T cells)) EUB0000156b NTRK1; design: mode of action Negative control for DDR-TRK-1 (D2202-1), recommended concentration 1 uM
[19] = target: BDNF/NT-3 growth factors receptor (Homo sapiens, UniProt Q16620); assay: Affinity On-target Cellular interaction (NanoBRET assay (HEK293T cells)) EUB0000156b NTRK2; design: mode of action Negative control for DDR-TRK-1 (D2202-1), recommended concentration 1 uM
[20] = target: Discoidin domain-containing receptor 2 (Homo sapiens, UniProt Q16832); assay: Affinity On-target Cellular interaction (NanoBRET assay (HEK293T cells)) EUB0000156b DDR2; design: mode of action Negative control for DDR-TRK-1 (D2202-1), recommended concentration 1 uM
[21] = target: Epithelial discoidin domain-containing receptor 1 (Homo sapiens, UniProt Q08345); assay: Affinity On-target Cellular interaction (NanoBRET assay (HEK293T cells)) EUB0000156b DDR1; design: mode of action Negative control for DDR-TRK-1 (D2202-1), recommended concentration 1 uM
[22] = target: T4, Mitogen-activated protein kinase 1 (Homo sapiens, UniProt P28482)
[23] = target: G-protein coupled receptor 52 (Homo sapiens, UniProt Q9Y2T5)
[24] = target: T4, Mitogen-activated protein kinase 1; assay: Affinity On-target Cellular interaction (Cellular assay (inhibition of RSK phosphorylation, A375SM cells)) EUB0000700a MAPK1

T2 sequence (Q9HAZ1 whole entry): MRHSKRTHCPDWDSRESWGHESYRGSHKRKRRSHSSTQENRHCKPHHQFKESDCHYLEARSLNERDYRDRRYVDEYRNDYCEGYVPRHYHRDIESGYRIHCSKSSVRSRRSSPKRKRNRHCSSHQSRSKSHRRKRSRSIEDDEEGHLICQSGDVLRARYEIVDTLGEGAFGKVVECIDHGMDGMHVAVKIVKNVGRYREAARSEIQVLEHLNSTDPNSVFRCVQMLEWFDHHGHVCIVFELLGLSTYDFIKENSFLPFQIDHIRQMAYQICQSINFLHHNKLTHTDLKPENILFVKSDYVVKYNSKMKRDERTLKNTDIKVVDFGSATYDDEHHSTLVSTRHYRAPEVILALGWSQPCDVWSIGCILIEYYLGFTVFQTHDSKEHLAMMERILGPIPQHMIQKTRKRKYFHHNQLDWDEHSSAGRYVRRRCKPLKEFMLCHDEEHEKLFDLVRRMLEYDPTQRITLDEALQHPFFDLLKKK
T1 sequence (Q5S007 whole entry): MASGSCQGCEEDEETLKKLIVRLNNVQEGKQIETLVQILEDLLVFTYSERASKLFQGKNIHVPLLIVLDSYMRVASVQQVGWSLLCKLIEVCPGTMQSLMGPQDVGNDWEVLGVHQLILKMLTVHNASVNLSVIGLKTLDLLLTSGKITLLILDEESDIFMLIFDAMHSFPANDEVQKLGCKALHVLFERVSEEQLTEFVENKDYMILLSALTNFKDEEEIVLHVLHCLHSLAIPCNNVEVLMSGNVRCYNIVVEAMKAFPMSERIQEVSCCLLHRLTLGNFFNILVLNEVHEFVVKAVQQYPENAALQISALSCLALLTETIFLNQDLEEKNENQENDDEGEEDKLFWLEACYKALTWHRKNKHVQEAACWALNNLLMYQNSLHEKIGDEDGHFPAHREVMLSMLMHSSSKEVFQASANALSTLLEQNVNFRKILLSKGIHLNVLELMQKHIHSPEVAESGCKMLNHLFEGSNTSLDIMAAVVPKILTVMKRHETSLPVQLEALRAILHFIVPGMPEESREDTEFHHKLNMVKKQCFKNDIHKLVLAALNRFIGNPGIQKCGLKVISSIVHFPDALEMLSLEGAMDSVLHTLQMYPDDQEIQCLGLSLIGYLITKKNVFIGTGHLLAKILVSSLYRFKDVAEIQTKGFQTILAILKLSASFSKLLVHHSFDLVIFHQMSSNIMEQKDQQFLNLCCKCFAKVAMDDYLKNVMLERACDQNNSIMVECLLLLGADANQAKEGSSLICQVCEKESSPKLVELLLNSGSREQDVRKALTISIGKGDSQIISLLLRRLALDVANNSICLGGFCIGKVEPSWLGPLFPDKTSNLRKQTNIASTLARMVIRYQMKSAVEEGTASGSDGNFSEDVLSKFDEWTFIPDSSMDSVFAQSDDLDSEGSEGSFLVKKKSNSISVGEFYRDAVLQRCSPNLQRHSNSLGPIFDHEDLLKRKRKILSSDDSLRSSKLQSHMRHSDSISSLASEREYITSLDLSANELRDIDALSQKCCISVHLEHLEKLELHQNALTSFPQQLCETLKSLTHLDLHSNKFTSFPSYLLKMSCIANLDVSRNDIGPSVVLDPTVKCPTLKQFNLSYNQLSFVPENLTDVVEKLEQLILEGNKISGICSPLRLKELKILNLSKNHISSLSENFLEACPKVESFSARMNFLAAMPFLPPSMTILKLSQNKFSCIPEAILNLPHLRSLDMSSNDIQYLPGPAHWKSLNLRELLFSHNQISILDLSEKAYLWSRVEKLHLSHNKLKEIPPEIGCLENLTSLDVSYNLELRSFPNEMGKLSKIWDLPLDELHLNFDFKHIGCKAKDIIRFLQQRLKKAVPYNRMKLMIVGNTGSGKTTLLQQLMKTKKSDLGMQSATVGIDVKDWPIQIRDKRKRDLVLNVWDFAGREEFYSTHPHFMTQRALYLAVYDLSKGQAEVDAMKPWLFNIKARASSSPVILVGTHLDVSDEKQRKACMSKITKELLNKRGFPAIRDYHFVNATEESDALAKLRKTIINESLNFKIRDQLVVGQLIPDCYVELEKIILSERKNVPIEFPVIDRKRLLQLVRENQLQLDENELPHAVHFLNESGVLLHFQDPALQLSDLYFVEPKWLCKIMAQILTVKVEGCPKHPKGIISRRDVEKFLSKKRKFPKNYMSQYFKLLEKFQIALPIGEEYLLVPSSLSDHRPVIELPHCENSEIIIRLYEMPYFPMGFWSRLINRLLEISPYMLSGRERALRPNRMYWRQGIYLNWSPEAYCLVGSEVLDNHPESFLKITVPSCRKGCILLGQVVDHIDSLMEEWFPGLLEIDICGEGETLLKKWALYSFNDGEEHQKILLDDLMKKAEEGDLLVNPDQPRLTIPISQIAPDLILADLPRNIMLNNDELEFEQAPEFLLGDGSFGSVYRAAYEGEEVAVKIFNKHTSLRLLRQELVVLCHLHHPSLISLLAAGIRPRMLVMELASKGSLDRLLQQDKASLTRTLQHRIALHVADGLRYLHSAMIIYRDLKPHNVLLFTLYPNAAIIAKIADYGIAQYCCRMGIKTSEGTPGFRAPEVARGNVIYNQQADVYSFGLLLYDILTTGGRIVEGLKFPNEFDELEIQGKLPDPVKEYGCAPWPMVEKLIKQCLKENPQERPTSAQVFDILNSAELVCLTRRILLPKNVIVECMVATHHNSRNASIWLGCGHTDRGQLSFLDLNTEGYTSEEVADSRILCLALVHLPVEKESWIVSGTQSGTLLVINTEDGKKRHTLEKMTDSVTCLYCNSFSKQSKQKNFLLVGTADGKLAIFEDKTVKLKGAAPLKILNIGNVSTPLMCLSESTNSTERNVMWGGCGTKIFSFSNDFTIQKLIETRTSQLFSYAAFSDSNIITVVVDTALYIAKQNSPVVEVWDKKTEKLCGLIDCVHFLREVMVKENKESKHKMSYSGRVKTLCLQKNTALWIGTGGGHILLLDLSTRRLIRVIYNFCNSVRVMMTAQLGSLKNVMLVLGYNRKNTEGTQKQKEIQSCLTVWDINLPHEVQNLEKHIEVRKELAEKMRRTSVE
T4 sequence (P28482 whole entry): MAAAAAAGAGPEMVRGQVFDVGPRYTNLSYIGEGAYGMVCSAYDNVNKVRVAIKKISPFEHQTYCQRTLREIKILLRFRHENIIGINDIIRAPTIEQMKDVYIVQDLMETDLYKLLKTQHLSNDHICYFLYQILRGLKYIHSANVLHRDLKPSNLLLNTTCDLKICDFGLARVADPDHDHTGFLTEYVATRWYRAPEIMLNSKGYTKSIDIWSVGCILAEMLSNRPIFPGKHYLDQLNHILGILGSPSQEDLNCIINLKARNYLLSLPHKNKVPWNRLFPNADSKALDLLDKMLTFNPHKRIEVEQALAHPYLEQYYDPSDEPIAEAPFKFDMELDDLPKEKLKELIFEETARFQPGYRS
T3 sequence (P49759 whole entry): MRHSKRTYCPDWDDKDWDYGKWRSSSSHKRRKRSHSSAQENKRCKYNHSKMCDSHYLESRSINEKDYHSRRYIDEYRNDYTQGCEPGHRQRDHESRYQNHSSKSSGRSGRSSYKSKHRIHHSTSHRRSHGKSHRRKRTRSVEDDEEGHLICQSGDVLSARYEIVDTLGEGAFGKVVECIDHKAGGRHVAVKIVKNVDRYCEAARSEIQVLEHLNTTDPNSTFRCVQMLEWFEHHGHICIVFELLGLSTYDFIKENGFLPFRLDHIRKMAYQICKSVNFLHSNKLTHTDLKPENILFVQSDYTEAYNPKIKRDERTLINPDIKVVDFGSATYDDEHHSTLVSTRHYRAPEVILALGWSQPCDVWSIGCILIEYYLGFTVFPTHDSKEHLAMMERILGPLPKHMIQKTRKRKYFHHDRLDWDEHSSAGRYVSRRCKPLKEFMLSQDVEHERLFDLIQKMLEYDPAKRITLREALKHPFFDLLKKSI
Histone-lysine N-methyltransferase SETD7, sequence (Q8WTS6 whole entry): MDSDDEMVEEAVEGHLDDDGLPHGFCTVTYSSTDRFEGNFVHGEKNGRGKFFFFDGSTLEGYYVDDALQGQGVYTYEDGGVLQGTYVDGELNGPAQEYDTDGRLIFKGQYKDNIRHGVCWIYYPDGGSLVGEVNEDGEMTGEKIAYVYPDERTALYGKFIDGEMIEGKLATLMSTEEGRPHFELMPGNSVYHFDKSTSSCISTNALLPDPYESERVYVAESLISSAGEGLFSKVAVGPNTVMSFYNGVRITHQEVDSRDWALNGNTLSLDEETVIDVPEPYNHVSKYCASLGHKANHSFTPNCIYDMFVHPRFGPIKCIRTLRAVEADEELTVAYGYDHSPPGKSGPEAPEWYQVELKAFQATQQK
Activin receptor type-1B, sequence (P36896 whole entry): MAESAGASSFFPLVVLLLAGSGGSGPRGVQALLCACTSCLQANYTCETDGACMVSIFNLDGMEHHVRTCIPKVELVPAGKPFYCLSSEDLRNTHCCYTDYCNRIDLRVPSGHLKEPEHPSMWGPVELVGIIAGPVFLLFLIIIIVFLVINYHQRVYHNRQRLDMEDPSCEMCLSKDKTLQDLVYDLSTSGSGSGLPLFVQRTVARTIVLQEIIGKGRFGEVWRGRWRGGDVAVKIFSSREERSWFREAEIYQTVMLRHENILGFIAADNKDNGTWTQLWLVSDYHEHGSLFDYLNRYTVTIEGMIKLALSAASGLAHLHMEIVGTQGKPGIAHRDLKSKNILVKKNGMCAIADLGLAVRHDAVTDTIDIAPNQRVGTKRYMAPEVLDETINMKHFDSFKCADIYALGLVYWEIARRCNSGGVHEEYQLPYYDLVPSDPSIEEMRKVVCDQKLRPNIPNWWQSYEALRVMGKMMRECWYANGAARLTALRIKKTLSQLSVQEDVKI
P2Y purinoceptor 14 (Homo sapiens), sequence (Q15391 whole entry): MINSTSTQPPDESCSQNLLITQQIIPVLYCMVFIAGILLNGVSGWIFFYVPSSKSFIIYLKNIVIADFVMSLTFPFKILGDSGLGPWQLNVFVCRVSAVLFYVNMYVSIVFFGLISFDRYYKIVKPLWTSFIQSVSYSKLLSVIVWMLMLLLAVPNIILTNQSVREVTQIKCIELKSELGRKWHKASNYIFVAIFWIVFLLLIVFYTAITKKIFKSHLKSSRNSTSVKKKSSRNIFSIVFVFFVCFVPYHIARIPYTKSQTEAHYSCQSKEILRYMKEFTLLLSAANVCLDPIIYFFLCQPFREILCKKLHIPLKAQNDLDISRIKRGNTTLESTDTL

SMILES: COc1cc2ncn(-c3cc(OCc4ccccc4C(F)(F)F)c(C(N)=O)s3)c2cc1OC [GW843682X]
IC50 [1]: 0.14 µM

SMILES: CN1CCN(C(=O)C(C)(C)c2ccc(C(=O)Nc3cn4cc(-c5cc(C(C)(C)C)cc(C(C)(C)C)c5)ccc4n3)cc2)CC1 [T3-CLK-N]
IC50 [3]: > 10 µM
IC50 [4]: > 10 µM
IC50 [5]: > 10 µM

SMILES: O=C([C@@H](Cc1cccc(C(F)(F)F)c1)NS(=O)(=O)c1cc(F)c2c(c1)CCNC2)N1CCCC1
EC50 [6]: < 10 µM

SMILES: O=C(O)c1cc(-c2ccc(C3CCNCC3)cc2)c2ccc(-c3ccc(C(F)(F)F)cc3)cc2c1
Potentiation inflection point [7]: > 10 µM

SMILES: Cc1c(Nc2ccc(S(=O)(=O)N3CCN(C)CC3)cc2F)nc2ccc(-c3cnn(C4CC4)c3)cn2c1=O
IC50 [10]: 0.016 µM

SMILES: C[C@@H]1CN(c2cc(-c3nn(C)c4ccc(OC5(C)CC5)cc34)ncn2)C[C@H](C)O1 [MLi-2-NC]
EC50 [15]: 0.421 µM

SMILES: CN1CCN(Cc2cc(NC(=O)c3ccc4c(c3)CN(c3ccccc3)CC4)cc(C(F)(F)F)c2)CC1
IC50 [18]: 19.3 µM
IC50 [19]: 6.8 µM
IC50 [20]: 8.72 µM
IC50 [21]: 26.6 µM

SMILES: C[C@H](NC(=O)Nc1cc2[nH]ncc2c(CO)n1)c1ccccn1 [ERKi-NC]
IC50 [24]: > 10 µM

More lines, now with the values ahead:

IC50 [2]: 0.019 µM
SMILES: CNc1nc(Nc2cnn([C@H]3CCN(C4COC4)C[C@@H]3F)c2Cl)ncc1C(F)(F)F

IC50 [8]: 0.22 µM
IC50 [9]: 0.66 µM
SMILES: Cc1nnc2c3ccccc3c(N[C@@H](C)[C@H](c3ccccc3)N(C)C)nn12

IC50 [11]: 1.9 µM
IC50 [12]: 8.3 µM
IC50 [13]: 18 µM
SMILES: C=CC(=O)Nc1ccc2[nH]c(=O)n(C3CCN(C(=O)c4ccc(-c5nc6cc[nH]c(=O)c6cc5-c5ccccc5)cc4)CC3)c2c1

IC50 [14]: > 16 µM
SMILES: O=C(Nc1ccc(Oc2ccc(F)cc2)cc1)N1CCc2ncccc2[C@H]1c1ccc(F)cc1 [BAY-897]

IC50 [16]: 0.004 µM
IC50 [17]: > 0.002 µM
SMILES: CN1CCN(C(=O)C(C)(C)c2ccc(C(=O)Nc3cn4cc(-c5ccncc5)ccc4n3)cc2)CC1 [T3-CLK]

IC50 (Activin receptor type-1B): > 10 µM
IC50 (TGF-beta receptor type-1): > 10 µM
SMILES: Cc1cnc(-c2cc(Cl)ccc2F)cc1-n1c(=O)n(CC(N)=O)c2ccccc21 [Al11]

IC50 [22]: 0.85 µM
SMILES: C[C@@H](NC(=O)Nc1cc2[nH]ncc2c(CO)n1)c1ccccc1 [ERKi]

EC50 [23]: > 1 µM
SMILES: Cc1nc(Cc2cccc(C(F)(F)F)c2)sc1-c1ccc(C(N)=O)nc1 [TP-024n]

Source: ChEMBL document CHEMBL5210121, “Affinity On-target Cellular Literature for EUbOPEN Chemogenomics Library wave 3” (2023)
